Patent publication US8492559B2, “Substituted indole compounds” (Gruenenthal GmbH, priority 2009, dated 2013)

Target: T1, B1R receptor of the rat (rB1R) (Rattus norvegicus, UniProt P97583)
T1 construct: expressed in transfected cells; host or cells: CHO K1 cells
T1 sequence (P97583 1-337): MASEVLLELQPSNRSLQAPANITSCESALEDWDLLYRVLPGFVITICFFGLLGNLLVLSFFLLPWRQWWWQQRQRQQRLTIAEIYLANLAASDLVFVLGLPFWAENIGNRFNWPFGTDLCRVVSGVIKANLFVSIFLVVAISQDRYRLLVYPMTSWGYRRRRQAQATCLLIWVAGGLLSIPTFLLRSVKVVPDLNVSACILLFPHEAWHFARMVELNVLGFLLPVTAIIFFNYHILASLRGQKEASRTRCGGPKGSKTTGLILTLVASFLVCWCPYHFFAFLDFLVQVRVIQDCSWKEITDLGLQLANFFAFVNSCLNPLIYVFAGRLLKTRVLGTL
Experiment: Functional investigation on the bradykinin 1 receptor (B1R), FLIPR Ca2+ assay, rB1R cells
Type: cell-based
Conditions: CHO K1 cells with rat B1R, agonist Des-Arg9 bradykinin, % of maximum achievable inhibition; for inhibition at 10 µM: CHO-K1, 10 μM test substance, read-out: B1R antagonism, rat [10 μM] % inhibition; for B1R antagonism, rat [10 μM] % inhibition: 10 μM test substance
How it was run: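 Cells plated at 20,000-35,000/well, incubated overnight at 37° C, loaded with Fluo-4 (2.13 μM, 60 min, 37° C, or 2.5 μM in buffer A), then read in FLIPR (λex 488, λem 540 nm). Agonist: Lys-Des-[MUT] bradykinin (0.5 nM) or Des-[MUT] bradykinin (100 nM). IC50 from % inhibition versus maximum, n=2-3, N>=2.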

Compound | inhibition at 10 µM [%] | B1R antagonism, rat [10 μM] % inhibition [%]
COc1cc(C)c(S(=O)(=O)Nc2cccc3ccn(CC(=O)N4CCC5(CC4)CCN(Cc4ccccc4)C5=O)c23)c(C)c1 [G_CC-32, N-[1-[2-(3-Benzyl-4-oxo-3,8-diazaspiro[4.5]decan-8-yl)-2-oxo-ethyl]-1H-indol-7-yl]-4-methoxy-2,6-dimethyl-benzenesulfonic acid amide] | 101 | 
Cc1cc(S(=O)(=O)Nc2ccc3ccn(CC(=O)N4CCN(CC5CCN(C)CC5)CC4)c3c2)c(C)cc1Cl [G_CC-8, 4-Chloro-2,5-dimethyl-N-[1-[2-[4-[(1-methyl-piperidin-4-yl)-methyl]-piperazin-1-yl]-2-oxo-ethyl]-1H-indol-6-yl]-benzenesulfonic acid amide] | 100 | 
O=C(CCn1ccc2ccc(N3Cc4cccc(Cl)c4C3=O)cc21)N1CCC2(CC1)CCN(c1ccncc1)CC2 [G_CC-67, 7-Chloro-2-[1-[3-oxo-3-(3-pyridin-4-yl-3,9-diazaspiro[5.5]undecan-9-yl)-propyl]-1H-indol-6-yl]-2,3-dihydro-isoindol-1-one] |  | 95
O=C(Cn1ccc2ccc(N3Cc4cccc(Cl)c4C3=O)cc21)N1CCC2(CCC(N3CCC3)CC2)CC1 [Compound G-21, 2-(1-(2-(9-(Azetidin-1-yl)-3-azaspiro[5.5]undecan-3-yl)-2-oxoethyl)-1H-indol-6-yl)-7-chloroisoindolin-1-one] | 43 | 
O=C(Cn1ccc2ccc(N3Cc4cccc(Cl)c4C3=O)cc21)N1CCC2(CC1)CC(c1ccncc1)=NO2 [Compound G-15, 7-Chloro-2-(1-(2-oxo-2-(3-(pyridin-4-yl)-1-oxa-2,8-diazaspiro[4.5]dec-2-en-8-yl)ethyl)-1H-indol-6-yl)isoindolin-1-one] | 54 | 
COc1cc(C)c(S(=O)(=O)Nc2cccc3ccn(CC(=O)N4CCC5(CCC(N6CCC6)CC5)CC4)c23)c(C)c1 [Compound G-18, N-(1-(2-(9-(azetidin-1-yl)-3-azaspiro[5.5]undecan-3-yl)-2-oxoethyl)-1H-indol-7-yl)-4-methoxy-2,6-dimethylbenzenesulfonic acid amide] | 99 | 
COc1cc(C)c(S(=O)(=O)Nc2cccc3ccn(CC(=O)N4CCC(CCN5CCCC5)CC4)c23)c(C)c1 [Compound G-02, 4-Methoxy-2,6-dimethyl-N-[1-[2-oxo-2-[4-(2-pyrrolidin-1-yl-ethyl)-piperidin-1-yl]-ethyl]-1H-indol-7-yl]-benzenesulfonic acid amide] | 100 | 
O=C(CCn1ccc2ccc(N3Cc4cccc(Cl)c4C3=O)cc21)N1CCC2(CC1)CCN(c1ccncc1)CC2 [Compound G-07, 7-Chloro-2-[1-[3-oxo-3-(9-pyridin-4-yl-3,9-diazaspiro[5.5]undecan-3-yl)-propyl]-1H-indol-6-yl]-2,3-dihydro-isoindol-1-one] | 100 | 
COc1cc(C)c(S(=O)(=O)Nc2cccc3ccn(CCC(=O)N4CCC5(CC4)CCN(c4ccncc4)CC5)c23)c(C)c1 [G_CC-54, 4-Methoxy-2,6-dimethyl-N-[1-[3-oxo-3-(3-pyridin-4-yl-3,9-diazaspiro[5.5]undecan-9-yl)-propyl]-1H-indol-7-yl]-benzenesulfonic acid amide] | 96 | 
COc1cc(C)c(S(=O)(=O)Nc2cccc3ccn(CC(=O)N4CCC5(CC4)CC(c4ccncc4)=NO5)c23)c(C)c1 [Compound G-13, 4-Methoxy-2,6-dimethyl-N-(1-(2-oxo-2-(3-(pyridin-4-yl)-1-oxa-2,8-diazaspiro[4.5]dec-2-en-8-yl)ethyl)-1H-indol-7-yl)benzenesulfonic acid amide] | 96 | 
COc1cc(C)c(S(=O)(=O)Nc2ccc3ccn(CC(=O)N4CCC(CCN5CCCC5)CC4)c3c2)c(C)c1 [Compound G-01, 4-Methoxy-2,6-dimethyl-N-[1-[2-oxo-2-[4-(2-pyrrolidin-1-yl-ethyl)-piperidin-1-yl]-ethyl]-1H-indol-6-yl]-benzenesulfonic acid amide] |  | 78
COc1cc(C)c(S(=O)(=O)Nc2cccc3ccn(CC(=O)N4CCC5(CCN(c6ccncc6)C5)C4)c23)c(C)c1 (stereo not drawn) [Compound G-17, 4-Methoxy-2,6-dimethyl-N-(1-(2-oxo-2-(7-(pyridin-4-yl)-2,7-diazaspiro[4.4]nonan-2-yl)ethyl)-1H-indol-7-yl)benzenesulfonic acid amide] | 95 | 
